We go through 24 compounds from patent publication US10077261B2, “Imidazolin-5-one derivative useful as FASN inhibitors for the treatment of cancer” (Janssen Pharmaceutica NV, priority 2012, dated 2018).

A value given as a limit tells only on which side of the number the result lay.

For this test, the target named is T1, hFASN enzyme (full length) (Homo sapiens, UniProt P49327).
T1 construct: 10 μL hFASN enzyme (full length, 300 ng, purified in house); made in house
In words: Fatty Acid Synthase (FASN) inhibition scintillation proximity assay. Format: biochemical. The settings on record: for inhibition at 10 µM: read-out: Human FASN % inhibition @ 10 μM, 10 μM test compound; for IC50: read-out: Human FASN pIC50 (converted). The method in brief:
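Purified full-length hFASN (300 ng) converts ^3H-acetyl-CoA plus malonyl-CoA to ^3H-palmitate in 100 mM KH2PO4 pH 7.5, 1 mM DTT; compounds tested at 0.01–30 μM. Product captured on streptavidin imaging beads and read by LEADseeker at 610 nm after ≥24 h; 4-parameter logistic fit versus controls.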
In general terms: Scintillation proximity formats need no separation of bound from free tracer.

T1 sequence (P49327 whole entry): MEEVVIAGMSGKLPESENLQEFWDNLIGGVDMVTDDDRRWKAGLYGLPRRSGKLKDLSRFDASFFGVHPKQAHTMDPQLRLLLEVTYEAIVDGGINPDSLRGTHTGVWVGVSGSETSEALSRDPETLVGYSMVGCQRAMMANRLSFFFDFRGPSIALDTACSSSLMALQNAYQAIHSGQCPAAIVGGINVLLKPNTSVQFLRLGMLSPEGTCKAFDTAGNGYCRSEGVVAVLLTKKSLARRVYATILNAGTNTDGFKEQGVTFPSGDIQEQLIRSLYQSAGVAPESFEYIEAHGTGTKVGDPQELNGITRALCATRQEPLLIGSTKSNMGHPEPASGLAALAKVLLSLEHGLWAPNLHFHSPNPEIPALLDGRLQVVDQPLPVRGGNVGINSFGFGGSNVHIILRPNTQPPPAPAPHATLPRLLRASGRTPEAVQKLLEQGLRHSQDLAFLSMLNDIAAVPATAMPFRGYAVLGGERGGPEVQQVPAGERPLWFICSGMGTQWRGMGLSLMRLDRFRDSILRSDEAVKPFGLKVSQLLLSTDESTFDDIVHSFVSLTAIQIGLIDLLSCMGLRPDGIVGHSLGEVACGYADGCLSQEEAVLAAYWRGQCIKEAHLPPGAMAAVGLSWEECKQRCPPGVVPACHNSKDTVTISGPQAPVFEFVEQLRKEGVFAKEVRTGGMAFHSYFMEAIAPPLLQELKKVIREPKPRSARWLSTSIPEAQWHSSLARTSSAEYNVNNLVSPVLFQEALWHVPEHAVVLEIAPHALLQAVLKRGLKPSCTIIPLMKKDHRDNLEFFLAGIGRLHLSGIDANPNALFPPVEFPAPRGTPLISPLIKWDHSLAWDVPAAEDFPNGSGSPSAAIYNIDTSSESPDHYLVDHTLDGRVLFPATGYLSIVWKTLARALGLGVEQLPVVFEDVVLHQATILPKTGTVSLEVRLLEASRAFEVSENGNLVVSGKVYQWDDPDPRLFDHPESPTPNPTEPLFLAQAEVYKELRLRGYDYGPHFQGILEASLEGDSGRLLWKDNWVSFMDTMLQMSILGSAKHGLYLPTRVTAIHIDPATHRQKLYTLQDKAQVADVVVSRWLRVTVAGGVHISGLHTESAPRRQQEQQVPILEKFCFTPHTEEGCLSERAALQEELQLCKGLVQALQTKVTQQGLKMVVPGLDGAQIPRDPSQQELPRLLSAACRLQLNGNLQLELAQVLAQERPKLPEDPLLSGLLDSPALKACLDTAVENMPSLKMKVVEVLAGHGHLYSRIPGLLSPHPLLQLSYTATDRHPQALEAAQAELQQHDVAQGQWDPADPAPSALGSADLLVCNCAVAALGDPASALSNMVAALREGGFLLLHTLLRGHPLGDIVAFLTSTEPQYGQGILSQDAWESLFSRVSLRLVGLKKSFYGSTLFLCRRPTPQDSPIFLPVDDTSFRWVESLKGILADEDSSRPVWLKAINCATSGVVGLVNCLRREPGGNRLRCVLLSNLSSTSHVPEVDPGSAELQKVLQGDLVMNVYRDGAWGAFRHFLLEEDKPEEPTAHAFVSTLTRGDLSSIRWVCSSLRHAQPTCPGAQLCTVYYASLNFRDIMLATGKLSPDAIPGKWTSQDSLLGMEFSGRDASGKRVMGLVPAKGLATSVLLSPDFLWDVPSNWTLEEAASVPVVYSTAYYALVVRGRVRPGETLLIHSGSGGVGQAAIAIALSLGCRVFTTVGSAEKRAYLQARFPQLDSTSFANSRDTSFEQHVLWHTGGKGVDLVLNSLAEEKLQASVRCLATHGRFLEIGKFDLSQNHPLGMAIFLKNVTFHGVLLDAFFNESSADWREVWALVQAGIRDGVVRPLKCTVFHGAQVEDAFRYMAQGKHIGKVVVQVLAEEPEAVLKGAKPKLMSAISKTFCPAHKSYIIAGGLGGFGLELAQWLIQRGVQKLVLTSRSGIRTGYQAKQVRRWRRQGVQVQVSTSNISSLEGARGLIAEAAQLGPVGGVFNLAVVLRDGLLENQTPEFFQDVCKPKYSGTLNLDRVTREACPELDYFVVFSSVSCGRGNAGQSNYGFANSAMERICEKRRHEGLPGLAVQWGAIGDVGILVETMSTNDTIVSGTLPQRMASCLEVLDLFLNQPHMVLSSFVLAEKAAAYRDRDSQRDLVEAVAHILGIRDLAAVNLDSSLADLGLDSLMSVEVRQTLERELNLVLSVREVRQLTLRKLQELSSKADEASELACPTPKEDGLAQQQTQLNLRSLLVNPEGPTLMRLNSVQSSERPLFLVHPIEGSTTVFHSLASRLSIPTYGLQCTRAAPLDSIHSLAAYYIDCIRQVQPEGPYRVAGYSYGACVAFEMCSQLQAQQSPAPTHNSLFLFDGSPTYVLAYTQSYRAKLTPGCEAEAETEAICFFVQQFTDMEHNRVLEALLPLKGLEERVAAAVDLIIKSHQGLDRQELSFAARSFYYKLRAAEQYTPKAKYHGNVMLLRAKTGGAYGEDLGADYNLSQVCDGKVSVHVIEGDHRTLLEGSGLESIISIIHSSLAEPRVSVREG

Broadly, the inhibition is the relative decrease from the control value, in per cent. As for `Cn1ncc2cc(-c3ccc(C4=NC5(CC5)C(=O)N4C[C@H]4CCCN(C(=O)C5CC5)C4)cc3)ccc21` [compound 819, (S)-6-((1-(cyclopropanecarbonyl)piperidin-3-yl)methyl)-5-(4-(1-methyl-1H-indazol-5-yl)phenyl)-4,6-diazaspiro[2.4]hept-4-en-7-one], the inhibition at 10 µM is 10%.
Regarding `O=C(C1CC1)N1CCC[C@@H](CN2C(=O)C3(CC3)N=C2c2ccc(-c3ccc(-c4cccc(Cl)c4)cc3)cc2)C1` [compound 820, (R)-5-(3″-chloro-[1,1′:4′,1″-terphenyl]-4-yl)-6-((1-(cyclopropanecarbonyl)piperidin-3-yl)methyl)-4,6-diazaspiro[2.4]hept-4-en-7-one], the inhibition at 10 µM came out at 33% and the IC50 was over 10 µM.
Take `Cc1ccc(-c2ccc(-c3ccc(C4=NC5(CC5)C(=O)N4C[C@@H]4CCCN(C(=O)C5CC5)C4)cc3)cc2)cc1` [compound 821, (R)-6-((1-(cyclopropanecarbonyl)piperidin-3-yl)methyl)-5-(4″-methyl-[1,1′:4′,1″- terphenyl]-4-yl)-4,6-diazaspiro[2.4]hept-4-en-7-one]: the inhibition at 10 µM is 7% and the IC50 is over 10 µM.
Regarding `Cc1cc(-c2cnc3c(c2)OCCN3C)ccc1C1=NC2(CCCC2)C(=O)N1C[C@@H]1CCN(C(=O)C2CC2)C1` [compound 822, (R)-3-((1-(cyclopropanecarbonyl)pyrrolidin-3-yl)methyl)-2-(2-methyl-4-(4-methyl-3,4-dihydro-2H-pyrido[3,2-b][1,4]oxazin-7-yl)phenyl)-1,3-diazaspiro[4.4]non-1-en-4-one], the inhibition at 10 µM stood at 25% and the IC50 is over 10 µM.
On the same counts, the results for `Cn1cc(-c2ccc(-c3ccc(C4=NC5(CC5)C(=O)N4C[C@@H]4CCCN(C(=O)C5CC5)C4)cc3)cc2)cn1` [compound 823, (R)-6-((1-(cyclopropanecarbonyl)piperidin-3-yl)methyl)-5-(4′-(1-methyl-1H-pyrazol-4-yl)-[1,1′-biphenyl]-4-yl)-4,6-diazaspiro[2.4]hept-4-en-7-one] are 31% and over 10 µM.
For the compound `O=C(C1CC1)N1CC[C@@H](CN2C(=O)C3(CCCC3)N=C2c2ccc(-c3ccnc(N4CCNCC4)c3)cc2)C1` [compound 828, (R)-3-((1-(cyclopropanecarbonyl)pyrrolidin-3-yl)methyl)-2-(4-(2-(piperazin-1-yl)pyridin-4-yl)phenyl)-1,3-diazaspiro[4.4]non-1-en-4-one], the inhibition at 10 µM was found to be 4% and the IC50 is over 10 µM.
In the case of `CN1CCN(c2cc(-c3ccc(C4=NC5(CCCC5)C(=O)N4C[C@@H]4CCN(C(=O)C5CC5)C4)cc3)ccn2)CC1` [compound 829, (R)-3-((1-(cyclopropanecarbonyl)pyrrolidin-3-yl)methyl)-2-(4-(2-(4-methylpiperazin-1-yl)pyridin-4-yl)phenyl)-1,3-diazaspiro[4.4]non-1-en-4-one], the inhibition at 10 µM worked out at 7% and the IC50 is over 10 µM.
On the same counts, the results for `Cc1cc(-c2cncc(Cl)c2)ccc1C1=NC2(CCCC2)C(=O)N1C[C@@H]1CCN(C(=O)C2CC2)C1` [compound 855, (R)-2-(4-(5-chloropyridin-3-yl)-2-methylphenyl)-3-((1-(cyclopropanecarbonyl)pyrrolidin-3-yl)methyl)-1,3-diazaspiro[4.4]non-1-rn-4-one] are 52% and over 10 µM.
Take `O=C(C1CC1)N1CCC(CN2C(=O)C3(CC3)N=C2c2ccc(-c3ccc(C(F)(F)F)cc3)cc2)CC1` [compound 859, 6-((1-(cyclopropanecarbonyl)piperidin-4-yl)methyl)-5-(4′-(trifluoromethyl)-[1,1′-biphenyl]-4-yl)-4,6-diazaspiro[2.4]hept-4-en-7-one]: the “Human FASN % inhibition @ 10 μM” value (10 μM test compound, 10 µM) is 11%. For the same compound, for the setting “hFASN enzyme, full length, "~" means standard error of the pIC50 is larger than 0.5”, the “Human FASN pIC50” value is under 5.
Regarding `Nc1cncc(-c2ccc(C3=NC4(CC4)C(=O)N3C[C@@H]3CCN(C(=O)C4CC4)C3)cc2)c1` [compound 867, (R)-5-(4-(5-aminopyridi9n-3-yl)phenyl)-6-((1-(cyclopropanecarbonyl)pyrrolidin-3-yl)methyl)-4,6-diazaspiro[2.4]hept-4-en-7-one], the inhibition at 10 µM stood at 44% and the IC50 is over 10 µM.
Consider `Cc1cc2cc(-c3ccc(C4=NC5(CC5)C(=O)N4CC4CN(C(=O)C5CC5)C4)c(F)c3)ccc2[nH]1` [compound 869, 6-((1-(cyclopropanecarbonyl)azetidin-3-yl)methyl)-5-(2-fluoro-4-(2-methyl-1H-indol-5-yl)phenyl)-4,6-diazaspiro[2.4]hept-4-en-7-one], for which the IC50 was 0.0468 µM.
Regarding `Cn1ccc2cc(-c3ccc(C4=NC5(CC5)C(=O)N4CC4CN(C(=O)C5CC5)C4)c(F)c3)ccc21` [compound 870, 6-((1-(cyclopropanecarbonyl)azetidin-3-yl)methyl)-5-(2-fluoro-4-(1-methy7l-1H-indol-5-yl)phenyl)-4,6-diazaspiro[2.4]hept-4-en-7-one], the IC50 is 0.0269 µM.
For `CC(=O)c1ccc(-c2ccc(C3=NC4(CCCC4)C(=O)N3C[C@@H]3CCN(C(=O)C4CC4)C3)c(F)c2)cc1` [compound 886, (R)-2-(4′-acetyl-3-fluoro-[1,1′-biphenyl]-4-yl)-3-((1-(cyclopropanecarbonyl)pyrrolidin-3-yl)methyl)-1,3-diazaspiro[4.4]non-1-en-4-one], the inhibition at 10 µM is 79% and the IC50 is 1.91 µM.
On to `O=C(C1CC1)N1CC(CN2C(=O)C3(CC3)N=C2c2ccc(-c3ccc(Br)cn3)cc2)C1` [compound 887, 5-(4-(5-bromopyridin-2-yl)phenyl)-6-((1-(cyclopropanecarbonyl)azetidin-3-yl)methyl)-4,6-diazaspiro[2.4]hept-4-en-7-one], for which the inhibition at 10 µM is 73% and the IC50 is 4.07 µM.
As for `CS(=O)(=O)N1CC(CN2C(=O)C3(CCOCC3)N=C2c2ccc(-c3ccc4occc4c3)cc2)C1` [compound 888, 2-(4-(benzofuran-5-yl)phenyl)-3-((1-(methylsulfonyl)azetidin-3-yl)methyl)-8-oxa-1,3-diazaspiro[4.5]dec-1-en-4-one], the inhibition at 10 µM was found to be 1% and the IC50 is over 10 µM.
For the compound `COC(=O)N1CC[C@@H](CN2C(=O)C3(CCOCC3)N=C2c2ccc(-c3ccc4occc4c3)cc2)C1` [compound 889, (S)-methyl 3-((2-(4-(benzofuran-5-yl)phenyl)-4-oxo-8-oxa-1,3-diazaspiro[4.5]dec-1-en-3-yl)methyl)pyrrolidin-1-carboxylate], the inhibition at 10 µM came to 44% and the IC50 was over 10 µM.
For `Cn1ncc2cc(-c3ccc(C4=NC5(CCOCC5)C(=O)N4C[C@@H]4CCN(C(=O)C(F)(F)F)C4)cc3)ccc21` [compound 890, (R)-2-(4-(1-methyl-1H-indazol-5-yl)phenyl)-3-((1-(2,2,2-trifluoroacetyl)pyrrolidin-3-yl)methyl)-8-oxa-1,3-diazaspiro[4.5]dec-1-en-4-one], the inhibition at 10 µM worked out at 37% and the IC50 is over 10 µM.
Consider `Cn1ncc2cc(-c3ccc(C4=NC5(CCOC5)C(=O)N4C[C@@H]4CCN(C(=O)c5nccs5)C4)cc3)ccc21` (stereo partly drawn) [compound 892, 2-(4-(1-methyl-1H-indazol-5-yl)phenyl)-3-(((R)-1-(thiazole-2-carbonyl)pyrrolidin-3-yl)methyl)-7-oxa-1,3-diazxaspiro[4.4]non-1-en-4-one], for which the inhibition at 10 µM was -29% and the IC50 is over 10 µM.
For `Cn1cc(-c2ccc(-c3ccc(C4=NC5(CCOCC5)C(=O)N4CC4CN(C(=O)C(F)(F)F)C4)cc3)cc2)cn1` [compound 893, 2-(4′-(1-methyl-1H-pyrazol-4-yl)-[1,1′-biphenyl]-4-yl)-3-((1-(2,2,2-trifluoroacetyl)azetidin-3-yl)methyl)-8-oxa-1,3-diazaspiro[4.5]dec-1-en-4-one], the inhibition at 10 µM is -12% and the IC50 is over 10 µM.
Turning to `COC(=O)N1CC[C@@H](CN2C(=O)C3(CCOC3)N=C2c2ccc(-c3ccc(-c4cnn(C)c4)cc3)cc2)C1` (stereo partly drawn) [compound 894, (3S)-methyl 3-((2-(4′-(1-methyl-1H-pyrazol-4-yl)-[1,1′-biphenyl]-4-yl)-4-oxo-7-oxa-1,3-diazaspiro[4.4]non-1-en-3-yl)methyl)pyrrolidin-1-carboxylate], the inhibition at 10 µM is 20% and the IC50 is over 10 µM.
In the case of `O=C(N1CC(CN2C(=O)C3(CCOC3)N=C2c2ccc(-c3ccc4cccnc4c3)cc2)C1)C(F)(F)F` (stereo not drawn) [compound 895, 2-(4-(quinolin-7-yl)phenyl)-3-((1-(2,2,2-trifluoroacetyl)azetidin-3-yl)methyl)-7-oxa-1,3-diazaspiro[4.4]non-1-en-4-one], the inhibition at 10 µM was 6% and the IC50 was over 10 µM.
On to `Cn1cc(-c2ccc(-c3ccc(C4=NC5(CCOC5)C(=O)N4CC4CN(C(=O)c5nccs5)C4)cc3)cc2)cn1` (stereo not drawn) [compound 901, 2-(4′-(1-methyl-1H-pyrazol-4-yl)-[1,1′-biphenyl]-4-yl)-3-((1-(thiazol-2-carbonyl)azetidin-3-yl)methyl)-7-oxa-1,3-diazaspiro[4.4]non-1-en-4-one], for which the inhibition at 10 µM was 2% and the IC50 is over 10 µM.
As to `Cn1ncc2cc(-c3ccc(C4=NC5(CCOCC5)C(=O)N4CC4CN(S(C)(=O)=O)C4)cc3)ccc21` [compound 902, 2-(4-(1-methyl-1H-indazol-5-yl)phenyl)-3-((1-(methylsulfonyl)azetidin-3-yl)methyl)-8-oxa-1,3-diazaspiro[4.5]dec-1-en-4-one], the inhibition at 10 µM came to 6% and the IC50 was over 10 µM.
Take `COC(=O)N1CC(CN2C(=O)C3(CCOC3)N=C2c2ccc(-c3ccc4cccnc4c3)cc2)C1` (stereo not drawn) [compound 903, methyl 3-((4-oxo-2-(4-(quinolin-7-yl)phenyl)-7-oxa-1,3-diazaspiro[4.4]non-1-en-3-yl)methyl)azetidine-1-carboxylate]: the inhibition at 10 µM stood at 15% and the IC50 was over 10 µM.
